This passage reports IC50 results from paper PMC4448982, “LP-925219 maximizes urinary glucose excretion in mice by inhibiting both renal SGLT1 and SGLT2” (Pharmacology Research & Perspectives, 2015).

One test addresses T1, mouse SGLT2 (Mus musculus, UniProt Q923I7).
T1 construct: expressed in transfected cells; host or cells: HEK293 (per abstract)
T1 sequence (Q923I7 1-670): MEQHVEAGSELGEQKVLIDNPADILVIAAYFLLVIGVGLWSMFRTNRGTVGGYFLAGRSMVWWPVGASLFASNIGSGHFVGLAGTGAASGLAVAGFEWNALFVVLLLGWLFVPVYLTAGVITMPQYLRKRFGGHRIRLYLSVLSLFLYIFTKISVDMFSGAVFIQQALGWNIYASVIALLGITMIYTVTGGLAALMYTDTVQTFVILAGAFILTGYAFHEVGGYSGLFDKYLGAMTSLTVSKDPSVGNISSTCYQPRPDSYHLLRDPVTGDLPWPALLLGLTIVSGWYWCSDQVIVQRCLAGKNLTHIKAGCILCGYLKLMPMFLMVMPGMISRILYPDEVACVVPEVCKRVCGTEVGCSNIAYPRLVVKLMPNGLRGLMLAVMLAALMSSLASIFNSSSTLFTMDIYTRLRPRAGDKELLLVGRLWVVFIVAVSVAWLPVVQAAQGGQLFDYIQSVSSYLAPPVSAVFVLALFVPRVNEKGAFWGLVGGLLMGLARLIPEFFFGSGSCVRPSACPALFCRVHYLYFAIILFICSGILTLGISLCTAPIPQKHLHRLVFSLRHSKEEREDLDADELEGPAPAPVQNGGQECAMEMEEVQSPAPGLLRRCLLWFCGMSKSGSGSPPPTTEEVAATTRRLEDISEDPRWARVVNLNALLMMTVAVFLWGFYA
Kind of test: 14C-AMG uptake assay, HEK293 cells expressing mouse SGLT2. The conditions noted are these: mean ± SD. Type of test: cell-based. An excerpt:
(§1) Methods for generating cell lines expressing mouse, rat, and dog SGLT1 and SGLT2 are published (Powell et al. [2013b], [2014]). Full-length coding sequence of human SGLT1 (NP_000334) and human SGLT2 (NP_003032.1) with an HA-tag at the N-terminus were cloned into the mammalian expression vector pIRESpuro2 (Clontech, Mountain View, CA). HEK293 cells (ATCC, Manassas, VA) were transfected with the pIRESpuro2 vector containing human SGLT1 or SGLT2 and bulk stable cell lines were selected in the presence of 0.5 μg/mL of puromycin.
(§2) Cell lines expressing SGLT1 or SGLT2 were plated into poly-D-lysine-coated 384-well plates, and culture overnight in cell growth medium. Cells were washed, and then incubated in uptake buffer ([…], […] KCl, […] CaCl2, […] MgCl2, […] HEPES/Tris, 1 mg/mL of bovine serum albumin, pH7.4) containing [^14C]α-methylglucopyranoside (^14C-AMG), a nonmetabolizable glucose analog specific for sodium-dependent glucose transporters (Wright and Turk [2004]). The inhibition of SGLT1 or SGLT2 was determined by measuring SGLT1/2-mediated ^14C-AMG uptake in the presence of increasing compound concentrations of LP-925219. […] Standard sigmoidal dose–response model curves were fitted, and the IC50 value was computed as the LP-925219 concentration that inhibited the ^14C-AMG uptake by 50% between baseline and maximum uptake.

Another test concerns the target T2, human SGLT1 (Homo sapiens, UniProt P13866).
T2 sequence (P13866 1-664): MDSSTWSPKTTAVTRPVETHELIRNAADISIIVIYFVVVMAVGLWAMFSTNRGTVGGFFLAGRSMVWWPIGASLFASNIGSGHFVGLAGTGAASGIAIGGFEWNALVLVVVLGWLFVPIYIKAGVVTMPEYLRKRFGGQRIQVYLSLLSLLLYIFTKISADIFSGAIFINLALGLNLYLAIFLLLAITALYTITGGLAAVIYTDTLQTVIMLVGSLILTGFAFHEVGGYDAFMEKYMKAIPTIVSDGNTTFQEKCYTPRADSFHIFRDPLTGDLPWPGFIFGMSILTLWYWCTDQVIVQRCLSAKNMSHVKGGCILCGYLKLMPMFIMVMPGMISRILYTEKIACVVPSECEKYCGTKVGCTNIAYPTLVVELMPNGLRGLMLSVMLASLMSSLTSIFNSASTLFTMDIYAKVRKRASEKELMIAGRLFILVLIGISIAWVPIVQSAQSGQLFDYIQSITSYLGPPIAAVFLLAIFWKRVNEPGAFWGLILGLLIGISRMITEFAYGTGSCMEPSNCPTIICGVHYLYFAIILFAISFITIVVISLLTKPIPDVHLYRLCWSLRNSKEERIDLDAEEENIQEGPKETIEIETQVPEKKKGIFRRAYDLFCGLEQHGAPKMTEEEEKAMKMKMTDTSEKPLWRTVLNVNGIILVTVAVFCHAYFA
Kind of test: 14C-AMG uptake assay, HEK293 cells expressing human SGLT1. Type of test: cell-based. More on the design: expressed in transfected cells. The conditions noted are these: mean ± SD.
Description: as §1, §2

One may read the IC50 as the concentration that inhibits the measured activity by half. Read a high IC50 as weaker potency. As for `COc1ccc(Cc2cc([C@@H]3O[C@H](SC)[C@@H](O)[C@H](O)[C@H]3O)ccc2Cl)cc1` [LP-925219], the IC50 was found to be 0.5 ± 0.1 nM at mouse SGLT2 and 15.9 ± 4.2 nM against human SGLT1.
